Legend:
[1] = target: Mitogen-activated protein kinase 12 (Homo sapiens) (UniProt P53778); conditions: Compound concentration 1000.0 nM
[2] = system: Epidermal growth factor receptor (Homo sapiens), P00533 [UNDEFINED MUTATION]; conditions: Compound concentration 1000.0 nM
[3] = target: T1, 5-hydroxytryptamine receptor 2C (Homo sapiens) (UniProt P28335); conditions: Compound concentration 10.0 uM
T1 sequence (whole entry): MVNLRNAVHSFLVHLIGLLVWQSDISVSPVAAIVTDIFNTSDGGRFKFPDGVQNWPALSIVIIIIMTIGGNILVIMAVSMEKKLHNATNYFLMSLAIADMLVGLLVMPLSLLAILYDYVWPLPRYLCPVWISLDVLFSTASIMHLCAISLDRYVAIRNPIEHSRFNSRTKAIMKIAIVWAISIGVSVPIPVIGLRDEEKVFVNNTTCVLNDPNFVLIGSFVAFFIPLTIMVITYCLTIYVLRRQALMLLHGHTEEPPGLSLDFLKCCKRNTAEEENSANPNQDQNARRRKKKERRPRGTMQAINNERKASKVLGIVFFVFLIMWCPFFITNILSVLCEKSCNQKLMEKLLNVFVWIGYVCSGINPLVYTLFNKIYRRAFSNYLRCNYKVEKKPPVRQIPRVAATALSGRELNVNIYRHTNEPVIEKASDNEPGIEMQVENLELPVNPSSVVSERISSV

[4] = target: cGMP-dependent protein kinase 2 (Homo sapiens) (UniProt Q13237); conditions: Compound concentration 1000.0 nM
[5] = system: Tyrosine-protein kinase ABL1 (Homo sapiens), P00519 [F317I]; conditions: Compound concentration 1000.0 nM
Rattus norvegicus = organism: Rattus norvegicus; conditions: Compound concentration 10.0 uM
[6] = target: T2, Muscarinic acetylcholine receptor M2 (Homo sapiens) (UniProt P08172); conditions: Compound concentration 10.0 uM
T2 sequence (whole entry): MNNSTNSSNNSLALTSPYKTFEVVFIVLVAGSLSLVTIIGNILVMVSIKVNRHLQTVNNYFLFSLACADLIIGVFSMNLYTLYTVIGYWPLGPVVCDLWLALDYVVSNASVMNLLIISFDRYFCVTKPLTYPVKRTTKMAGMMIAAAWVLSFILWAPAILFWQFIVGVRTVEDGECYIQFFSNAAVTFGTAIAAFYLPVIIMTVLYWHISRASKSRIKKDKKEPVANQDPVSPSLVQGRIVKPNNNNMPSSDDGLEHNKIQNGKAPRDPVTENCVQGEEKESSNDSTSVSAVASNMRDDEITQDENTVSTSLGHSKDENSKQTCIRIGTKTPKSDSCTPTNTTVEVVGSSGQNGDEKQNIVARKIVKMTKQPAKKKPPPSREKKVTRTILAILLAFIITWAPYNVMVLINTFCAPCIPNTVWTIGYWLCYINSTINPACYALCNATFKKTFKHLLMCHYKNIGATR

[7] = target: Myosin light chain kinase, smooth muscle (Homo sapiens) (UniProt Q15746); conditions: Compound concentration 1000.0 nM
[8] = system: Tyrosine-protein kinase ABL1 (Homo sapiens), P00519 [E255K]; conditions: Compound concentration 1000.0 nM
[9] = target: Serine/threonine-protein kinase DCLK2 (Homo sapiens) (UniProt Q8N568); conditions: Compound concentration 1000.0 nM
[10] = system: Receptor-type tyrosine-protein kinase FLT3 (Homo sapiens), P36888 [D835Y]; conditions: Compound concentration 1000.0 nM
[11] = target: Serine/threonine-protein kinase TNNI3K (Homo sapiens) (UniProt Q59H18); conditions: Compound concentration 1000.0 nM
[12] = target: T3, 5-hydroxytryptamine receptor 3A (Homo sapiens) (UniProt P46098); conditions: Compound concentration 10.0 uM
T3 sequence (whole entry): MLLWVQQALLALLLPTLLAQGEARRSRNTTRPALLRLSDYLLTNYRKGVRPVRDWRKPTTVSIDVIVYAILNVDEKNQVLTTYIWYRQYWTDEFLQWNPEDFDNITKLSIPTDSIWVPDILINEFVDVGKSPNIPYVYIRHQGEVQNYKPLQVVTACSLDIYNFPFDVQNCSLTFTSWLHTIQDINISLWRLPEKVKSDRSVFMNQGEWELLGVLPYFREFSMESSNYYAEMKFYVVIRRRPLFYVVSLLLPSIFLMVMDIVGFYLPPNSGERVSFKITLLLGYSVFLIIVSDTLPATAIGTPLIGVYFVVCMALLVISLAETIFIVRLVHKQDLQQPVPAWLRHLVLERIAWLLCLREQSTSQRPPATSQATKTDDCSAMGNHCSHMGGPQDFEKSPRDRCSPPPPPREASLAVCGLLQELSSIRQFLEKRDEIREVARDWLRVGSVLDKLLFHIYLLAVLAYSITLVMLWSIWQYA

[13] = target: Mitogen-activated protein kinase kinase kinase 14 (Homo sapiens) (UniProt Q99558); conditions: Compound concentration 1000.0 nM
[14] = target: Proto-oncogene tyrosine-protein kinase receptor Ret (Homo sapiens) (UniProt P07949); conditions: Compound concentration 1000.0 nM
[15] = target: Interleukin-1 receptor-associated kinase 3 (Homo sapiens) (UniProt Q9Y616); conditions: Compound concentration 1000.0 nM
[16] = target: Tyrosine-protein kinase Fer (Homo sapiens) (UniProt P16591); conditions: Compound concentration 1000.0 nM
[17] = target: cAMP-dependent protein kinase catalytic subunit beta (Homo sapiens) (UniProt P22694); conditions: Compound concentration 1000.0 nM
[18] = target: Ribosomal protein S6 kinase alpha-6 (Homo sapiens) (UniProt Q9UK32); conditions: Compound concentration 1000.0 nM
[19] = system: Epidermal growth factor receptor (Homo sapiens), P00533 [L858R]; conditions: Compound concentration 1000.0 nM
[20] = target: Serine/threonine-protein kinase PAK 2 (Homo sapiens) (UniProt Q13177); conditions: Compound concentration 1000.0 nM
[21] = target: Tyrosine-protein kinase Mer (Homo sapiens) (UniProt Q12866); conditions: Compound concentration 1000.0 nM
[22] = target: Serine/threonine-protein kinase 10 (Homo sapiens) (UniProt O94804); conditions: Compound concentration 1000.0 nM
[23] = target: Mitogen-activated protein kinase kinase kinase 10 (Homo sapiens) (UniProt Q02779); conditions: Compound concentration 1000.0 nM
[24] = target: Tyrosine-protein kinase Fyn (Homo sapiens) (UniProt P06241); conditions: Compound concentration 1000.0 nM
[25] = target: Ephrin type-A receptor 2 (Homo sapiens) (UniProt P29317); conditions: Compound concentration 1000.0 nM

Chain of Serine/threonine-protein kinase DCLK2 (Homo sapiens) (Q8N568 whole entry): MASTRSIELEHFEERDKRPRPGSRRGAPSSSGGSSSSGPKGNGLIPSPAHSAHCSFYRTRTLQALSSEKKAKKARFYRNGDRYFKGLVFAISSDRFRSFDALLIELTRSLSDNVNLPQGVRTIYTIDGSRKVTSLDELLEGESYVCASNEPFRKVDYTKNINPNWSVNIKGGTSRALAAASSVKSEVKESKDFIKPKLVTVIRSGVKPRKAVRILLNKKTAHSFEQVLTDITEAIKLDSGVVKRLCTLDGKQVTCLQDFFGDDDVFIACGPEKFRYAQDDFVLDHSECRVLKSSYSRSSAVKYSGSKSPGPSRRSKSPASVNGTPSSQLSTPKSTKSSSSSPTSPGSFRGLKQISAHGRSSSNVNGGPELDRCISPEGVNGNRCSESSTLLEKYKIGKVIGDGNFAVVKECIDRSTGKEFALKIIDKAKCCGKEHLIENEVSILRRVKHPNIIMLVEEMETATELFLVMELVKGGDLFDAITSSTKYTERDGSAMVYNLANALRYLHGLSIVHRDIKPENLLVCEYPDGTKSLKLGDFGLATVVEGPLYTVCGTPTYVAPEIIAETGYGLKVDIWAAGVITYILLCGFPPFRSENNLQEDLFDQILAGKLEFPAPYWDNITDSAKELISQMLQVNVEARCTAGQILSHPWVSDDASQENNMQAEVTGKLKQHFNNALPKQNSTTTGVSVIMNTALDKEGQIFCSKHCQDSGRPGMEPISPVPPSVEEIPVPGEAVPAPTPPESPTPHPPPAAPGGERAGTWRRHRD
Chain of Tyrosine-protein kinase ABL1 (Homo sapiens), P00519 [F317I] (P00519 whole entry F317I): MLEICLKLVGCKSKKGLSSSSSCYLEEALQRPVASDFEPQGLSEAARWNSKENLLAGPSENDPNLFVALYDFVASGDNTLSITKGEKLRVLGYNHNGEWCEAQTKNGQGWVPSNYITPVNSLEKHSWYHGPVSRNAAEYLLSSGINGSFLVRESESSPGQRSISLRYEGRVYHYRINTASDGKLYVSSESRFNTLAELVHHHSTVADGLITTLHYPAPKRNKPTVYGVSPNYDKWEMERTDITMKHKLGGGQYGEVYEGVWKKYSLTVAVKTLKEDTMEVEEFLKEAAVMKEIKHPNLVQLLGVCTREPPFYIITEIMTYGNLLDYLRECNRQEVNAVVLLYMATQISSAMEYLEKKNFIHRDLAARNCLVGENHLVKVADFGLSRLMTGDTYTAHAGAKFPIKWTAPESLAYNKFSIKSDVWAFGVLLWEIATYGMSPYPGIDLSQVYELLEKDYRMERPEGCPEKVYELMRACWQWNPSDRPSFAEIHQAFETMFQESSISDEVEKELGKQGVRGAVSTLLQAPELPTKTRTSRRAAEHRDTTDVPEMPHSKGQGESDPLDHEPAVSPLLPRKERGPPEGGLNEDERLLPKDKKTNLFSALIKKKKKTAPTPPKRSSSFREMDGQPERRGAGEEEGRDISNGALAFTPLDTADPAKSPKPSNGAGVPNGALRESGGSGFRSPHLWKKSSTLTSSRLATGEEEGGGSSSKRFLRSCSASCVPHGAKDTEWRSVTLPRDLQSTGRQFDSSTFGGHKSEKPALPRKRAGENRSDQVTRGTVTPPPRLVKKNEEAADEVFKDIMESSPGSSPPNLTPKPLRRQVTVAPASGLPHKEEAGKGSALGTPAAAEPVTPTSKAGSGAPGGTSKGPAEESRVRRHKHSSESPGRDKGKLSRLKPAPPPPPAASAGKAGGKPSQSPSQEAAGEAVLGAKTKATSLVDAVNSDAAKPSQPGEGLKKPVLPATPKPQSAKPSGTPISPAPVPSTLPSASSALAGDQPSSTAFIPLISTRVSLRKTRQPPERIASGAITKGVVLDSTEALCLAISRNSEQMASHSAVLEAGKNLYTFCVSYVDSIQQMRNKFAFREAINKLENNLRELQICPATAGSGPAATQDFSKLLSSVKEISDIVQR
Chain of Mitogen-activated protein kinase 12 (Homo sapiens) (P53778 whole entry): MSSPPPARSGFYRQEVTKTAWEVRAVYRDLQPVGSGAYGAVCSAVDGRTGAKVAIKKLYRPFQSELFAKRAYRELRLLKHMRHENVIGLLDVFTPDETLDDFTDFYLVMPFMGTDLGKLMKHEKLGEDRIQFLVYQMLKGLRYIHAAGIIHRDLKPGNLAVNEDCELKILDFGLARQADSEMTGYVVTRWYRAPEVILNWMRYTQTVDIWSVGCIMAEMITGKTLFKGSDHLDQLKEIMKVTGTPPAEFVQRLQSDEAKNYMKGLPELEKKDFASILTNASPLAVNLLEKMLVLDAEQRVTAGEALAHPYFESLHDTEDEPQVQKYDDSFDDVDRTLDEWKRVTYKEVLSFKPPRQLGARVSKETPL
Chain of Serine/threonine-protein kinase PAK 2 (Homo sapiens) (Q13177 whole entry): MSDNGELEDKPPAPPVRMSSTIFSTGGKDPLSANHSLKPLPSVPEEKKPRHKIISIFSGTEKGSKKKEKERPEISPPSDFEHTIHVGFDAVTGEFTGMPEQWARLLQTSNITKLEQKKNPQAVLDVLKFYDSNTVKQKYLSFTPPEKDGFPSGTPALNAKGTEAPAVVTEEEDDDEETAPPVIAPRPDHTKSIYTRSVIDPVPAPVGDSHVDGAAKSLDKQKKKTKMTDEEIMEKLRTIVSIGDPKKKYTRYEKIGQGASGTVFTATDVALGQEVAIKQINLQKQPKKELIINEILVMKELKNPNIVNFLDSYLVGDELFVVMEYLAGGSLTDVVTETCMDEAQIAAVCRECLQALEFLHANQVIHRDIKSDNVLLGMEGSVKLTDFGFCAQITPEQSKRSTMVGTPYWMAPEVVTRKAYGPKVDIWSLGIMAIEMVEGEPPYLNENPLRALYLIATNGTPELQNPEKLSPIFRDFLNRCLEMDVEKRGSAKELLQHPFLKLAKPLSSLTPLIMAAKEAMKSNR
Chain of Tyrosine-protein kinase Mer (Homo sapiens) (Q12866 whole entry): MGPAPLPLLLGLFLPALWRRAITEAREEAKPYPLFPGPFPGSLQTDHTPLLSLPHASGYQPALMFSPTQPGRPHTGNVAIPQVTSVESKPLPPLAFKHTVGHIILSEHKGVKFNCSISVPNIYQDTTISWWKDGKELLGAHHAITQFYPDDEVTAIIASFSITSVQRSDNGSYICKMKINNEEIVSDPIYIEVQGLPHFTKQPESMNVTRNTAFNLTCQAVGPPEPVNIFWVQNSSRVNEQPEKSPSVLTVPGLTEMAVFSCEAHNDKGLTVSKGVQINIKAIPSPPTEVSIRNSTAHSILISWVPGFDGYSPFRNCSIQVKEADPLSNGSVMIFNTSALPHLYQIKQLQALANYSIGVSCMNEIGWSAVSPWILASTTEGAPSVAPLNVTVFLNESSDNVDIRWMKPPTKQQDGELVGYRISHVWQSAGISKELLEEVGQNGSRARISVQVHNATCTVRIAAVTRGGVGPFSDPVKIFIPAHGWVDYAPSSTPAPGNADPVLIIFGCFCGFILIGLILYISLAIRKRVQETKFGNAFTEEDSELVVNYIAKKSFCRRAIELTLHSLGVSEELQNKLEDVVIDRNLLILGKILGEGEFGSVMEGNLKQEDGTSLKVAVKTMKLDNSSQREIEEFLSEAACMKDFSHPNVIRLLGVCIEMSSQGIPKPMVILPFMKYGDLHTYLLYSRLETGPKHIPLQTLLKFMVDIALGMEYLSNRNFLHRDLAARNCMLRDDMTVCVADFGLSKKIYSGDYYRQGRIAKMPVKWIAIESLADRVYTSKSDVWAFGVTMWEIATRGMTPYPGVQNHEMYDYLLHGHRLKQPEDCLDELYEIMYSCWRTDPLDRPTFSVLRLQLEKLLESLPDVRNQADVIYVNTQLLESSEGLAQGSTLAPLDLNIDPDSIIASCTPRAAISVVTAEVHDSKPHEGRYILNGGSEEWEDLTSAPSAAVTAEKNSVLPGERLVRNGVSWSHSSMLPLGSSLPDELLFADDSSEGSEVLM
Chain of Mitogen-activated protein kinase kinase kinase 10 (Homo sapiens) (Q02779 whole entry, looked up): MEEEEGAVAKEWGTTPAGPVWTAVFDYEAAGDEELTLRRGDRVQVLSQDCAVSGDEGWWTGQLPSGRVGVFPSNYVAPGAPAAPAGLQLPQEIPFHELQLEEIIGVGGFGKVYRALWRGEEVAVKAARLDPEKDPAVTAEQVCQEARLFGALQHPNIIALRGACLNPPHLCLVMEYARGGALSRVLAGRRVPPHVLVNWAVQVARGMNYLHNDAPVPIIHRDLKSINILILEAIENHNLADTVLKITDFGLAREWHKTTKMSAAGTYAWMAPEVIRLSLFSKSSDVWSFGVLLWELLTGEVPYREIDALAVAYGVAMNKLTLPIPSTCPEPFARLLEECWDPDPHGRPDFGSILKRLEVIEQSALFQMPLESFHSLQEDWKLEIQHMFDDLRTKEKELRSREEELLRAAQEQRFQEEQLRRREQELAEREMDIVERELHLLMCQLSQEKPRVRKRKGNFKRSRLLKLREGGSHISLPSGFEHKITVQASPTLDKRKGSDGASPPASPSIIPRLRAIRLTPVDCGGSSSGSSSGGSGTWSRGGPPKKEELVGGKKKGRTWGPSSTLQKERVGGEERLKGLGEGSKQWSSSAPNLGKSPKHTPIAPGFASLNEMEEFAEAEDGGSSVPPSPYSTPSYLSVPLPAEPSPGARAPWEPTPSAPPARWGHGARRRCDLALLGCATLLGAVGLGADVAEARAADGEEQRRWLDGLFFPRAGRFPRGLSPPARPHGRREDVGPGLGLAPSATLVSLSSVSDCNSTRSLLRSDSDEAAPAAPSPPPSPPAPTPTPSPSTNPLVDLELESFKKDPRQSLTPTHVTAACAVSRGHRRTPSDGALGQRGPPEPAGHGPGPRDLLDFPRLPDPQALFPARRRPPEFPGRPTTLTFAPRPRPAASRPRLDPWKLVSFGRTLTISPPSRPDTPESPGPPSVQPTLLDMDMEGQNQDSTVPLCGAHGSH
Chain of Tyrosine-protein kinase ABL1 (Homo sapiens), P00519 [E255K] (P00519 whole entry E255K): as the sequence (P00519 whole entry F317I) above, with E255K, I317F counted along it

| SMILES | residual activity [1] [%] | residual activity [2] [%] | inhibition [3] [%] | residual activity [4] [%] | residual activity [5] [%] | inhibition (Rattus norvegicus) [%] | inhibition [6] [%] | residual activity [7] [%] | residual activity [8] [%] | residual activity [9] [%] | residual activity [10] [%] | residual activity [11] [%] | inhibition [12] [%] | residual activity [13] [%] | residual activity [14] [%] | residual activity [15] [%] | residual activity [16] [%] | residual activity [17] [%] | residual activity [18] [%] | residual activity [19] [%] | also measured |
| --- | --- | --- | --- | --- | --- | --- | --- | --- | --- | --- | --- | --- | --- | --- | --- | --- | --- | --- | --- | --- | --- |
| O=C(Nc1cccnn1)N1CCC(=Cc2cccc(Oc3ccc(C(F)(F)F)cn3)c2)CC1 | 100 | 83 | 64.6 | 100 | 100 | 59.6 | 20.8 | 100 | 85 | 81 | 100 | 100 | 10.7 | 100 | 100 | 86 | 74 | 100 | 100 | 100 | residual activity [20]: 83%; residual activity [21]: 81%; residual activity [22]: 74%; residual activity [23]: 100%; residual activity [24]: 100%; residual activity [25]: 81% |
| O=C(Nc1cccnn1)N1CC(C/C=C/c2cncc(Oc3ccc(C(F)(F)F)cn3)n2)C1 | 100 | 100 | 1.89 | 91 | 67 | 25.6 | 20.7 | 73 | 81 | 100 | 100 | 100 | -0.28 | 77 | 100 | 100 | 100 | 100 | 89 | 97 | residual activity [20]: 95%; residual activity [21]: 100%; residual activity [22]: 94%; residual activity [23]: 100%; residual activity [24]: 100%; residual activity [25]: 100% |
